In US9359452B2, “Isolation and characterisation of heparan sulphates and their use in pharmaceutical compositions, methods of treatment and stem cell culture media suitable for conditions associated with bone repair” (Agency for Science, Technology and Research, priority 2009, dated 2016):
Entries after “also recorded” stand apart in the source; their conditions may differ.

Experiments:
[1] = tested on: human mesenchymal stem cells (hMSC); assay: hMSC proliferation, viable cell count in osteogenic medium; type: cell-based; settings: data not shown
Method: (§1) FIG. 5. Effect of male and female liver HS on the growth of hMSC in maintenance and osteogenic medium. Cells were cultured for 7 days in normal maintenance medium in the presence of different concentrations (12.5 μg/ml or 1.25 μg/ml or 625 ng/ml or 312 ng/ml or 156 ng/ml) of male liver HS (A), and female liver HS (B). Cells were cultured for 7 days in osteogenic medium in the presence of different concentrations (12.5 μg/ml or 625 ng/ml or 312 ng/ml) of male liver HS (C), and female liver HS (D). Viable cell counts were determined at day 1, 3, 5 and 7. (E) The importance of FGFR signaling for HS activity was investigated by supplementing serum starved sub confluence cultures with male or female. HS (2.5 μg/ml) or FGF2 (2.5 ng/ml) in the presence or absence of an FGFR1 inhibitor (SU5402 at 20 μM) for 60 min. Total protein was extracted for Western blotting and first probed for activated ERK1/2 expression (pERK1/2). Membranes were then striped and reprobed with anti ERK1/2 antibody. (F) The amount of pERK1/2 protein was determined by densitometry. […]
(§2) Human mesenchymal stem cells (hMSCs) (Cambrex, USA) were plated in maintenance medium consisting of DMEM (1000 mg/L glucose), 10% fetal calf serum (FCS), 2 mM L-glutamine and 100 U/ml penicillin-streptomycin sulfate at 37° C. in a humidified atmosphere with 5% CO2. […] Proliferation of cells was assessed by Guava viacount on 1, 3, 5 and 7 day to determine the total viable cells. Cells were washed in PBS, pelleted with 0.125% trypsin, the trypsin neutralized, the pellet resuspended in 400 μl of PBS with the addition of 4 μl of Flex reagent, incubated for 10 min and cell number and viability determined utilizing the GUAVA Viacount software.
To assess the possibility of structural differences identified between the male and female liver HS to modulate hMSC proliferation, hMSCs were treated with varying concentration of HS and viable cell number was counted over a 7-day culture period in normal maintenance or differentiation (osteogenic) medium.

[2] = tested on: human mesenchymal stem cells (hMSC); assay: hMSC proliferation, viable cell count (GUAVA Viacount) in maintenance medium; type: cell-based; settings: normal growth medium; data not shown
Method: as §2, with “CO2. To assess their proliferation, assays were performed to determine cell number utilizing the GUAVA PCA-96 System (GUAVA Technologies) as per the manufacturer's instructions. Briefly, cells were seeded at 3,000 cells/cm^2 in 48-well plates and allowed to adhere overnight.” for “CO2.”
Human mesenchymal stem cells (hMSCs) were plated in maintenance medium consisting of DMEM (1000 mg/L glucose), 10% fetal calf serum (FCS), 2 mM L-glutamine and 100 U/ml penicillin-streptomycin sulfate at 37° C. in a humidified atmosphere with 5% CO2. To assess their proliferation, assays were performed to determine cell number utilizing the GUAVA PCA-96 System (Millipore, USA) as per the manufacturer's instructions.
Briefly, cells were seeded at 3,000 cells/cm^2 in 48-well plates and allowed to adhere overnight. […] Proliferation of cells was assessed on days 1, 3, 5 and 7 to determine total viable cells. Cells were washed in PBS, pelleted with 0.125% trypsin, the trypsin neutralized, the pellet resuspended in 400 μl of PBS with the addition of 4 μl of Flex reagent, incubated for 10 min and cell number and viability determined utilizing the GUAVA Viacount software.

[3] = tested on: hMSCs; assay: hMSC proliferation with or without FGFR1 inhibitor SU5402, 5 days; type: cell-based, human
[4] = tested on: Bovine aortic smooth muscle cells (BASMC); settings: literature (Yang et al); cited from earlier work
[5] = tested on: ERK1/2; assay: ERK1/2 phosphorylation in serum-starved hMSC (Western blot); type: cell-based, human; settings: SU5402 at 20 μM, 60 min, with male or female HS 2.5 μg/ml
Method: as §1
MSCs were seeded in designated media at 5,000/cm^2 in six-well plates and cultured until subconfluent. […] Protein content was determined using a Protein Assay Kit (Bio-Rad) following the manufacturer's instructions. […]

Q: What does the source list for 6-de-O-sulfated heparin?
A: effect on hMSC proliferation [1]: no effect; also recorded: neither de-N-sulfated, 2-de-O-sulfated nor 6-de-O-sulfated heparin had any effect; hMSC proliferation compared to 10% serum [2]: less effect on proliferation

Q: Which “effect on hMSC proliferation” value ([3]; FGF2 2.5 ng/ml) does the source give for FGF2 here?
A: induced proliferation

Q: Which “effect on BASMC mineralization” value [4] does the source give for N-desulfated heparin here?
A: no inhibition; also recorded: no inhibitory activity

Q: Which “effect on BASMC mineralization” value [4] does the source give for dermatan sulfate here?
A: no inhibition; also recorded: no inhibitory activity

Q: For heparin [highly sulfated heparin], which “effect on BASMC mineralization” value [4] is on record?
A: inhibited

Q: Which “effect on hMSC proliferation” value [1] does the source give for de-N-sulfated heparin here?
A: no effect; also recorded: neither de-N-sulfated, 2-de-O-sulfated nor 6-de-O-sulfated heparin had any effect

Q: What about the “hMSC proliferation compared to 10% serum” value [2] of the same compound?
A: does not increase hMSC proliferation; also recorded: failed to improve hMSC proliferation

Q: Which results are given for `Cc1c[nH]c(/C=C2\C(=O)Nc3ccccc32)c1CCC(=O)O` [SU5402]?
A: effect on basal growth of hMSCs ([3]; SU5402 at 20 μM): inhibitory effect; effect on HS and FGF2 induced proliferation ([3]; SU5402 at 20 μM, male HS 2.5 μg/ml or FGF2 2.5 ng/ml): preventing HS and FGF2 induced proliferation; effect on liver HS-stimulated ERK1/2 phosphorylation [5]: blocked

Q: Which “effect on hMSC proliferation” value [1] does the source give for 2-de-O-sulfated heparin here?
A: no effect; also recorded: neither de-N-sulfated, 2-de-O-sulfated nor 6-de-O-sulfated heparin had any effect

Q: And the “hMSC proliferation compared to 10% serum” value [2]?
A: less effect on proliferation
